Patent publication US4670418A, “Method of using somatostatin as an analgesic or an anesthetic” (CuraMED Pharma GmbH, priority 1984, dated 1987)

Legend:
[1] = penetration of the dura into the liquor upon peridural application; assay type: in vivo
[2] = tested on: Cancer patients suffering from intolerable pain; experiment: intraspinal and intraventricular injection and infusion in cancer patients with intolerable pain; assay type: in vivo; details: humans, intraspinal or intraventricular route
Experimental: Cancer patients suffering from intolerable pain in the final stage of post-operative pain were given 250 μg of somatostatin as an injection and thereafter 10 to 50 μg/hour of somatostatin as an infusion, in part via the intraspinal route and in part via the intraventricular route.

[3] = intradural or intraspinal injections or infusions, anesthetic effect; assay type: in vivo
[4] = tested on: dogs; experiment: investigation with dogs, analgesia test according to Cohen (heated plate); assay type: in vivo
[5] = tested on: humans; experiment: preliminary experiments with humans, peridural application; assay type: in vivo
[6] = tested on: rats; details: intracerebroventricular infusion; cited from earlier work
[7] = in vivo; cited from earlier work

C[C@H](N)C(=O)NCC(=O)N[C@H]1CSSC[C@@H](C(=O)O)NC(=O)[C@H](CO)NC(=O)[C@H]([C@@H](C)O)NC(=O)[C@H](Cc2ccccc2)NC(=O)[C@H]([C@@H](C)O)NC(=O)[C@H](CCCCN)NC(=O)[C@H](Cc2c[nH]c3ccccc23)NC(=O)[C@H](Cc2ccccc2)NC(=O)[C@H](Cc2ccccc2)NC(=O)[C@H](CC(N)=O)NC(=O)[C@H](CCCCN)NC1=O [somatostatin]
penetration of the dura [1]: capable of rapidly (and to a high degree) penetrating the dura | analgesia ([2]; 250 μg injection then 10 to 50 μg/hour infusion): marked analgesia, comparable to that of morphine | tolerability of the infusions ([2]; 10 to 50 μg/hour infusion): tolerated without any occurring side-effects for a period of over two weeks | anesthetic effects [3]: have anesthetic effects | signs of pain ([4]; dog having a large decubitus): showed no signs of pain | duration of analgesic activity ([4]; dogs): maintained for several weeks | sedation and behavior ([4]; dogs): had not been put under sedation and showed a balanced behavior | side effects ([4]; dogs): No side effects were apparent | period for which heated plate was tolerated ([4]; dogs, all animals, heated plate of 60° C., analgesia test according to Cohen): 5 s | analgesic effectiveness ([5]; peridural application of 125 μg): analgesically effective | analgesic effectiveness ([5]; peridural application of 250 μg): analgesically effective | analgesic effect [6]: a short-term analgesic effect was found | half-life [7]: 2 to 4 min
